Measured values: patent US20070190628A1, “Yeast food composition for fuel ethanol production” (priority 2006, published 2007)

Key:
Assay type in all cases: cell-based, Saccharomyces cerevisiae
active dry yeast “y” = assay: Fermentation performance of commercial active dry yeasts in normal gravity corn mash; conditions: strain “y”
Protocol: The effects of the defined urea plus salts-based yeast food on fermentation performance of seven commercial active dry yeasts currently used by the fuel alcohol industry (Bellisimi et al., 2005, Am. Soc. Brew. Chem. J. Vol. 63, pp. 107-112) and designated herein as strains “b”, “d”, “e”, “w”, “x”, “y”, and “z”, were assessed in normal gravity corn mash prepared as described in Example 1. The commercial active dry yeasts were assessed with the following corn mash supplanted as follows: (a) 8 mM urea (control), or (b) 1% yeast extract, or (c) 8 mM urea supplemented with the defined urea plus salts yeast food of the present invention. The fermentation methods were followed as outlined in Example 4. Fermentation rates were determined by repeated sampling and sample processing at specific time intervals as described in Example 1.

active dry yeast “z” [1] = assay: Fermentation of normal gravity corn mash with nutrient supplements (Example 4)
Protocol: The effects of the optimized defined urea plus salts-based nutrient supplement, i.e., defined yeast food, developed in Example 3 for corn mash fermentations, were assessed by comparisons of fermentation rates and ethanol production in normal gravity corn mashes and very high gravity corn mashes that were (a) supplemented with 16 mM urea only, or (b) yeast extract, or (c) supplemented with 16 mM urea plus the defined yeast food from Example 3 which in this set of studies, contained 1.6 g/L (NH4)2HPO4, 0.32 g/L (NH4)2SO4, 0.049 g/L MgSO4.7H2O, and 0.273 mg/L ZnSO4.7H2O.
Normal density corn mashes were prepared as described in Example 1 and were determined to contain about 18-20 g dissolved solids per 100 mL mash as determined by density meter analysis. […] The mash thus prepared contained 30-32 g of dissolved solids/100 mL as determined by density meter analysis. […]
Each study was commenced by removing fermentors containing either normal gravity corn mash or very high gravity corn mash from 4° C. storage, connecting them to 30° C. water bath circulators and continually mixing the corn mash contents therein until the temperature of each mash was 30° C. […] Fermentation performance in all treatments was assessed by repeated sampling and analyses of the mashes during the fermentation periods as described in Example 1.

active dry yeast “z” [2] = assay: Scaled batch fermentation (4 L) of normal gravity corn mash: fermentation time and ethanol production; conditions: 4 L batch
Protocol: The fermentation rate in each nutrient-amended corn mash was determined by following the disappearance of dissolved solids by analysis of each sample collected for determination of yeast biomass production, with a digital density meter analyzer (model DMA-45, Anton Paar KG, Graz, Austria) maintained at 20° C. The amounts of ethanol produced during fermentation of each nutrient-amended corn mash were determined by measuring the amount of NADH+H^+ produced after ethanol was converted to acetaldehyde by alcohol dehydrogenase (ADH; Sigma Chemical Co.). An aliquot of each sample was collected for determination of yeast biomass production and diluted to 1:500. […] The absorbance of each tube was then measured at 340 nm after 15 min of incubation using water as the blank. To determine the amount of ethanol produced, a standard curve (ethanol concentration versus absorbance) was prepared using a standard 10% (w/v) ethanol preparation diluted to 1:500 and then diluted further to produce range of ethanol concentrations from 0 to 20 μg in the assay above. The linear equation (y=mx+b) obtained from the plot was used to calculate the amount of ethanol in the test solutions, where y was the absorbance and x was the amount (μg) of ethanol. […] Fermentation rates and ethanol production were determined by repeated sampling and sample processing at specific time intervals as described in Example 1.

NC(N)=O [urea]
Fermentation rate (active dry yeast “y”; normal gravity corn mash): 0.83 ± 0.01 g/100 mL/hr
Fermentation time (active dry yeast “y”; complete disappearance of 20 g of dissolved solids/100 mL): 48 h
fermentation period required to complete fermentation (disappearance of dissolved solids) (active dry yeast “z” [1]): 48 h
maximum ethanol production (active dry yeast “z” [2]): 11 % v/v
time within which fermentation was completed (active dry yeast “z” [2]): ≤ 48 h
